Results from US7763585B2, “Methods for inhibiting tumor cell proliferation” (priority 2003, dated 2010).
Like-named read-outs stand apart in the source and are kept apart here.

Experiments:
Stat3:Stat3 = target: T1, Stat3:Stat3 (Mus musculus, UniProt P42227); assay: EMSA, disruption of Stat3:Stat3 DNA-binding activity in vitro (hSIE probe); assay type: biochemical; details: for Level of DNA-binding activity of Stat3 (EMSA): EGF-stimulated fibroblast nuclear extracts, 30 min preincubation, FIG. 1A; for IC50: nuclear extracts pre-incubated 30 min at room temperature, read-out: IC50 for disruption of STAT DNA-binding activity in vitro, Stat3:Stat3
T1 construct: endogenous in cells; host or cells: EGF-stimulated fibroblasts (nuclear extract)
Protocol: (§1) FIGS. 1A-D are photographs showing EMSA analyses of DNA-binding activities and effects of platinum complexes. Nuclear extracts containing activated Stat1, Stat3 and Stat5 are treated with the indicated concentrations of platinum complex ISSCPA-1, ISSCPA-3, ISSCPA-7, or PtCl4 for 30 min at room temperature prior to incubation with radiolabeled oligonucleotide probes. […] Positions of complexes of DNA with STAT, E2F1 or NFκB (p65, p50) in gel are labeled. Control lanes represent nuclear extracts that are not pre-incubated with platinum complexes.
(§2) Nuclear extracts were prepared from cell lines and used for EMSA as previously described (Turkson et al., 1998; Yu et al., 1995; Garcia et al., 1997). In some cases, cells were pre-treated with platinum complexes for the indicated times prior to harvesting. Where cells were stimulated with EGF (6 ng/ml), duration of treatment was 15 min. Nuclear extracts were pre-incubated with compounds for 30 min at room temperature prior to incubation with radiolabeled probe. The ^32P-radiolabeled oligonucleotide probes used are hSIE (high affinity sis-inducible element, m67 variant, 5′-[…]-3′) (SEQ ID NO:1) that binds both Stat1 and Stat3 (Garcia et al., 1997; Wagner et al., 1990), MGFe (mammary gland factor element from the bovine β-casein gene promoter, 5′-AGATTTCTAGGAATTCAA-3′) (SEQ ID NO:2) that binds Stat1 and Stat5 (Gouilleux et al., 1995; Seidel et al., 1995), the NF-κB binding oligo (5′-[…]-3′) (SEQ ID NO:3), and the oligonucleotide sequence from the DHFR promoter that binds E2F1.
(§3) Platinum compounds were evaluated for inhibitory activity against STAT DNA-binding in vitro.

[1] = test system: Stat3-independent luciferase reporter (pRLSRE); assay: Stat3-independent renilla luciferase reporter in NIH3T3/v-Src/pRLSRE; assay type: cell-based, mouse; details: FIG. 4
Protocol: FIGS. 4A-B show inhibition of Stat3-mediated gene expression in intact cells by platinum complexes. v-Src-transformed mouse fibroblasts that stably express Stat3-dependent (NIH3T3/v-Src/pLucTKS3) and Stat3-independent (NIH3T3/v-Src/pRLSRE) luciferase reporters were treated with platinum complexes for the indicated times. Cytosolic extracts were then prepared from cells for Stat3-dependent firefly luciferase activity (FIG. 4A) and Stat3-independent renilla luciferase measurements (FIG. 4B). Values are the means and S.D. of five independent assays. […]
Cytosolic lysates preparation from fibroblasts for luciferase assays or from baculovirus-infected Sf-9 insect cells have been previously described (Turkson et al., 1998; Turkson et al., 2001; Turkson et al., 1999; Zhang et al., 2000). Luciferase assays were performed as outlined in the supplier's (Promega) manual and measured with a luminometer. […]

Stat1:Stat3 = target: T2, Stat1:Stat3 (Mus musculus, UniProt P42225+P42227); assay: EMSA, disruption of Stat1:Stat3 DNA-binding activity in vitro (hSIE probe); assay type: biochemical
T2 construct: endogenous in cells; host or cells: EGF-stimulated fibroblasts (nuclear extract)
Protocol: as §1, §2, §3

Stat5 = assay: EMSA, Stat5 DNA-binding activity in vitro (MGFe probe); assay type: biochemical, mouse; details: FIG. 1B
Protocol: as §1, §2, §3

T1 sequence (P42227 2-770 limits assumed): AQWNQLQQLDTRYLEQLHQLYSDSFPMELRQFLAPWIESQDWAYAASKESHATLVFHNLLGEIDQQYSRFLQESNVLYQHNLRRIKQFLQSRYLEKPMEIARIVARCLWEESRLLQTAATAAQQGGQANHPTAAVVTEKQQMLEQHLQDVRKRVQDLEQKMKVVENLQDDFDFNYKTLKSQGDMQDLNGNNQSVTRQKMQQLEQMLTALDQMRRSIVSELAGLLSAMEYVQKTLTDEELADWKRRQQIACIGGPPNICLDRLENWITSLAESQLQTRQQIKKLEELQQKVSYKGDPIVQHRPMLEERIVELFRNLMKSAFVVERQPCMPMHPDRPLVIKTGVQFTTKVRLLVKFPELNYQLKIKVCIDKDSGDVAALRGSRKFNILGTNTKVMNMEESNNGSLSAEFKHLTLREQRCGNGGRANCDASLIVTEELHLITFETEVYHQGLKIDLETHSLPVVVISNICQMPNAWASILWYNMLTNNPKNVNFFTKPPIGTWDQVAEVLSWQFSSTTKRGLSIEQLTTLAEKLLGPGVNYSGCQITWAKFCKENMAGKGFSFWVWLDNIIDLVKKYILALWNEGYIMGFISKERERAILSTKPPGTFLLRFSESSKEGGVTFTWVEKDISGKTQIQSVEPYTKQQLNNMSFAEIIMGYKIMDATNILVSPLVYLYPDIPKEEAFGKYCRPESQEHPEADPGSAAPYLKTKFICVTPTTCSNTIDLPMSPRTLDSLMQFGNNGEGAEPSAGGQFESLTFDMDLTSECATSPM
T2 sequence (P42227 2-770 limits assumed): as above
T2 sequence (P42225 2-749 limits assumed): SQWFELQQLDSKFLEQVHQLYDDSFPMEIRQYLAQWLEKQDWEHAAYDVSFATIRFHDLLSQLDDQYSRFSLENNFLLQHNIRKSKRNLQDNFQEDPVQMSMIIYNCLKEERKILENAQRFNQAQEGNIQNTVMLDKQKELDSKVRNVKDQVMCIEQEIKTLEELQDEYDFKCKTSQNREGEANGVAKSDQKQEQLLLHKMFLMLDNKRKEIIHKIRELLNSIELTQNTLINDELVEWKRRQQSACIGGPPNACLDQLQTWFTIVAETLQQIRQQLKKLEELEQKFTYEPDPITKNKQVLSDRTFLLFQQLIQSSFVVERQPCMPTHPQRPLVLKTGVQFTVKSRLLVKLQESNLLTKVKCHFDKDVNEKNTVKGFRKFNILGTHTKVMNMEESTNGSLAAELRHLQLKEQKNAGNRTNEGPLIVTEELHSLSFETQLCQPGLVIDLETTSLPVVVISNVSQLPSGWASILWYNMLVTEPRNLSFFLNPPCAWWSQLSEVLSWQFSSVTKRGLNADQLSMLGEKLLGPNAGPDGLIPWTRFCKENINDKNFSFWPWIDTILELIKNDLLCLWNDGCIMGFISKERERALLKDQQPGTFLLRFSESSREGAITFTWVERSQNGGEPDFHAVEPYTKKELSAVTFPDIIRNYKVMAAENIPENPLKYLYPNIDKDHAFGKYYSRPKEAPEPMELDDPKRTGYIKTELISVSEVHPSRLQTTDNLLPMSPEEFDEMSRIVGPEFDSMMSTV

| Structure (SMILES) | Level of DNA-binding activity of Stat3 (EMSA) (Stat3:Stat3) | IC50 (Stat3:Stat3) | Induction of Stat3-independent luciferase activity [1] | IC50 (Stat1:Stat3) | Inhibitory effect on Stat5 DNA-binding activity (EMSA) (Stat5) | IC50 (Stat1:Stat3; nuclear extracts pre-incubated 30 min at room temperature, hSIE probe, read-out: IC50 for disruption of STAT DNA-binding activity in vitro, Stat1:Stat3) |
| --- | --- | --- | --- | --- | --- | --- |
| O=[N+]([O-])[Pt]1([Cl])([Cl])([Cl])[NH]CC[NH]1 [ISS CPA-1] | dose-dependent reduction | 5 µM | little or no effect | 9.3 µM | much reduced inhibitory effect | – |
| [NH2][Pt]([NH2])([Cl])([Cl])([Cl])[N+](=O)[O-] [ISS CPA-7] | dose-dependent reduction | 1.5 µM | little or no effect | – | much reduced inhibitory effect | 3.5 µM |
